Experimental data published in patent US20250255930A1, “METHODS OF TREATMENT OF TINNITUS USING DERIVATIVES OF OXYTOCIN” (MASKBEGONE LLC, priority 2024, published 2025).

Test: clinical use of intranasal oxytocin formulations to treat tinnitus (patient case reports)
Type: in vivo, human
Text: According to an embodiment, this disclosure provides a method for treating tinnitus. The method comprises administering intranasally to an individual a composition comprising or consisting essentially of oxytocin, wherein such administration results in treatment of tinnitus. The effectiveness of treatment of tinnitus may be monitored by quantifying tinnitus, such as by self-evaluation using clinically accepted techniques. An example is the Tinnitus Handicap Inventory (“THI”), a validated and published measurement technique. (Newman et al., Arch Otolaryngol Head Neck Surg, 1996 February 122 (2), 143-8). In an embodiment, the improvement in an individual using THI may comprise an improvement of at least 10%. In various embodiments, the improvement may comprise from 10-100%, such as at least 20, 30, 40, 50, 60, 70, 80, 90, 95, or 99%.
This example describes clinical use of the present formulations to treat tinnitus. […] A compounded formulation of oxytocin that provided a dose of 60 IU daily (30 IU twice daily) was then used. The formulation contained oxytocin, magnesium chloride, citric acid, and sodium citrate in sterile water. […] The dose was then increased to 45 IU (3 sprays of 15 IU) 4 times daily. […] A thickener was then added to the formulation keeping the oxytocin amount the same. […] Their score on the Tinnitus Handicap Inventory reduced from a pretreatment score of 96 (meaning a catastrophic level) to a current score of 14 (meaning mild or no tinnitus). The patient has remained improved over 1 year since initiating therapy. Their current dose is 22.5 IU in each nostril 4 times daily. Since their tinnitus occurs in distinct cycles, at times when tinnitus severity is loudest, they increase the dose to 5 times daily for 2 days. […] Their current handicap inventory is 8.

[1] = first patient, 22.5 IU in each nostril 4 times daily, 5 times daily for 2 days when loudest, past 3 months
[2] = patient with constant tinnitus, 30 IU 4 times daily, after 2 weeks
[3] = second patient, 45 IU twice daily

**Q.** With `CC[C@H](C)[C@@H]1NC(=O)[C@H](Cc2ccc(O)cc2)NC(=O)[C@@H](N)CSSC[C@@H](C(=O)N2CCC[C@H]2C(=O)N[C@@H](CC(C)C)C(=O)NCC(N)=O)NC(=O)[C@H](CC(N)=O)NC(=O)[C@H](CCC(N)=O)NC1=O` [oxytocin, Cys-Tyr-Ile-Gln-Asn-Cys-Pro-Leu-Gly] as the molecule, how does the “time patient has remained improved since initiating therapy” value (first patient) read?
**A.** The value was “over 1 year”.

**Q.** And the current handicap inventory (first patient, 22.5 IU in each nostril 4 times daily, 5 times daily for 2 days when loudest)?
**A.** The current handicap inventory was 8.

**Q.** And the time without tinnitus [1]?
**A.** The time without tinnitus was at most 10 days.

**Q.** And the tinnitus severity [1]?
**A.** Its tinnitus severity is “reduced tinnitus severity”.

**Q.** What about the relief of tinnitus (first patient, 45 IU (3 sprays of 15 IU) 4 times daily) of the same molecule?
**A.** Its relief of tinnitus is “significant relief”.

**Q.** And the patient-reported benefit (first patient, 60 IU daily (30 IU twice daily), oxytocin, magnesium chloride, citric acid, sodium citrate in sterile water)?
**A.** The patient-reported benefit was “partial benefit”.

**Q.** What about the “score on the Tinnitus Handicap Inventory” value (first patient, after treatment with thickener formulation, pretreatment score 96) of the same molecule?
**A.** The value was 14.

**Q.** What about the relief of tinnitus (first patient, initial dose of less than 20 IU daily) of the same molecule?
**A.** Its relief of tinnitus is “did not provide any relief”.

**Q.** What about the tinnitus free period (first patient, thickener added to formulation, oxytocin amount the same (45 IU 4 times daily)) of the same molecule?
**A.** The tinnitus free period was “several days of tinnitus free period”.

**Q.** And the relief of tinnitus (lower amounts of oxytocin (such as under 20 IU per day))?
**A.** The relief of tinnitus was “did not result in any significant relief”.

**Q.** And the improvement (patient with constant tinnitus after neck injury, 45 IU (22.5 IU in each nostril) 4 times daily for 30 days)?
**A.** Its improvement is “about 15%”.

**Q.** What about the tinnitus volume (patient with constant tinnitus after neck injury, dose raised to 5 times daily on occasions) of the same molecule?
**A.** The tinnitus volume was “diminished tinnitus volume”.

**Q.** And the “time without noticing the tinnitus” value [2]?
**A.** Its value is “several hours per day without noticing the tinnitus”.

**Q.** And the tinnitus intensity [2]?
**A.** Its tinnitus intensity is “tinnitus intensity has lowered”.

**Q.** What about the benefit (patient with drug-caused tinnitus, 30 IU twice daily) of the same molecule?
**A.** The benefit was “without benefit”.

**Q.** And the “decrease in tinnitus volume” value (patient with drug-caused tinnitus, 45 IU 4 times daily)?
**A.** Its value is “approximately 30%”.

**Q.** And the benefit [3]?
**A.** Its benefit is “significant benefit”.

**Q.** What about the “reduction of tinnitus volume” value [3] of the same molecule?
**A.** The value was 45-60%.

**Q.** And the “time patient remains improved” value [3]?
**A.** The value was “more than a year”.

**Q.** What about the tinnitus free days [3] of the same molecule?
**A.** Its tinnitus free days is “some days in which they are tinnitus free”.
